Measured values: patent publication US20240360114A1 (SIRONAX LTD., priority 2021, published 2024)

Test system: HT-1080 cells
Assay: HT-1080 cell viability assay (ferroptosis induced by RSL3, Cell Titer-Glo)
Format: cell-based
Conditions: Homo sapiens, ferroptosis inducer RSL3, 20 hours, ferroptosis inhibitory activity, Table 2
Procedure, shortened: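 Cells seeded overnight, then co-treated with RSL3 and compound (3-fold, 10-point dilution, top 1.1 μM) for 20 hours. Viability by CellTiter-Glo luminescence, normalized to untreated controls; EC50 from sigmoidal non-linear regression.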

SMILES	EC50 (HT-1080, 20 h) [nM]	EC50 [nM]
Cc1nc(N2C[C@@H](C)N(CC(F)(F)F)[C@@H](C)C2)ccc1NC[C@H]1CC[C@H](N)CC1 [Compound 543, N-(((1r,4R)-4-aminocyclohexyl)methyl)-6-((3R,5S)-3,5-dimethyl-4-(2,2,2-trifluoroethyl)piperazin-1-yl)-2-methylpyridin-3-amine]	0.1 to 100	–
CCc1nc(N2C[C@@H](C)O[C@@H](C)C2)ccc1NC[C@H]1CC[C@H](N)CC1 [Compound 544, N-(((1r,4R)-4-aminocyclohexyl)methyl)-6-((2S,6R)-2,6-dimethylmorpholino)-2-ethylpyridin-3-amine]	0.1 to 100	–
CCc1nc(N2C[C@@H](C)O[C@@H](C)C2)ccc1NC1CC2(CC(N)C2)C1 (stereo partly drawn) [Compound 545, N^2-(6-((2S,6R)-2,6-dimethylmorpholino)-2-ethylpyridin-3-yl)spiro[3.3]heptane-2,6-diamine]	0.1 to 100	–
CC[C@@H]1CN(c2ccc(NC3CC4(CC(N)C4)C3)c(C)n2)C[C@H](C)O1 (stereo partly drawn) [Compound 546, N2-(6-((2R,6S)-2-ethyl-6-methylmorpholino)-2-methylpyridin-3-yl)spiro[3.3]heptane-2,6-diamine]	0.1 to 100	–
CC[C@@H]1CN(c2ccc(NC3CC4(CC(N)C4)C3)c(C)n2)C[C@@H](C)O1 (stereo partly drawn) [Compound 547, N^2-(6-((2R,6R)-2-ethyl-6-methylmorpholino)-2-methylpyridin-3-yl)spiro[3.3]heptane-2,6-diamine]	0.1 to 100	–
CC[C@@H]1CN(c2ccc(NC[C@H]3CC[C@H](N)CC3)c(C)n2)C[C@@H](CC)O1 [Compound 548, N-(((1r,4R)-4-aminocyclohexyl)methyl)-6-((2R,6R)-2,6-diethylmorpholino)-2-methylpyridin-3-amine]	0.1 to 100	–
CC[C@@H]1CN(c2ccc(NC3CC4(CC(N)C4)C3)c(C)n2)C[C@H](CC)O1 (stereo partly drawn) [Compound 549]	0.1 to 100	–
CC[C@@H]1CN(c2ccc(NC3CC4(CC(N)C4)C3)c(C)n2)C[C@@H](CC)O1 (stereo partly drawn) [Compound 550]	0.1 to 100	–
CC[C@@H]1CN(c2ccc(NC3CCC(N)CC3)c(C)n2)C[C@H](C)O1 (stereo partly drawn) [Compound 551, N1-(6-((2R,6S)-2-ethyl-6-methylmorpholino)-2-methylpyridin-3-yl)cyclohexane-1,4-diamine]	100 to 1000	–
CC[C@@H]1CN(c2ccc(NC3CCC(N)CC3)c(C)n2)C[C@@H](CC)O1 (stereo partly drawn) [Compound 552, N1-(6-((2R,6R)-2,6-diethylmorpholino)-2-methylpyridin-3-yl)cyclohexane-1,4-diamine]	0.1 to 100	–
Cc1nc(N2CC(C)OC(C)C2)ccc1NC1CC2CCC1CC2N (stereo not drawn) [Compound 553, N2-(6-(2,6-dimethylmorpholino)-2-methylpyridin-3-yl)bicyclo[2.2.2]octane-2,5-diamine]	100 to 1000	–
Cc1nc(N2CC(C)N(C(=O)C(F)(F)F)C(C)C2)ccc1NC1CC2(CC(N)C2)C1 (stereo not drawn) [Compound 554, 1-(4-(5-((6-aminospiro[3.3]heptan-2-yl)amino)-6-methylpyridin-2-yl)-2,6-dimethylpiperazin-1-yl)-2,2,2-trifluoroethan-1-one]	0.1 to 100	–
CC(=O)N1C(C)CN(c2ccc(NC3CC4(CC(N)C4)C3)c(C)n2)CC1C (stereo not drawn) [Compound 555, 1-(4-(5-((6-aminospiro[3.3]heptan-2-yl)amino)-6-methylpyridin-2-yl)-2,6-dimethylpiperazin-1-yl)ethan-1-one]	0.1 to 100	–
Cc1nc(N2CC[Si](C)(C)CC2)ccc1NC1CC2(CC(N)C2)C1 (stereo not drawn) [Compound 556, N2-(6-(4,4-dimethyl-1,4-azasilinan-1-yl)-2-methylpyridin-3-yl)spiro[3.3]heptane-2,6-diamine]	0.1 to 100	–
Cc1nc(NCC(F)(F)F)ccc1NC1CC2(CC(N)C2)C1 (stereo not drawn) [Compound 557, N3-(6-aminospiro [3.3]heptan-2-yl)-6-methyl-N2-(2,2,2-trifluoroethyl)pyridine-2,5-diamine]	0.1 to 100	–
Cc1nc(N(C)CC(F)(F)F)ccc1NC1CC2(CC(N)C2)C1 (stereo not drawn) [Compound 558, N^5-(6-aminospiro [3.3]heptan-2-yl)-N2,6-dimethyl-N2-(2,2,2-trifluoroethyl)pyridine-2,5-diamine]	0.1 to 100	–
N[C@H]1CC[C@H](CNc2ccc(C3CCN(CC(F)(F)F)CC3)cc2)CC1 [Compound 559, N-(((1r, 4r)-4-aminocyclohexyl)methyl)-4-(1-(2,2,2-trifluoroethyl)piperidin-4-yl)aniline]	0.1 to 100	–
NC1CC2(C1)CC(Nc1ccc(C3CCN(CC(F)(F)F)CC3)cc1)C2 (stereo not drawn) [Compound 560, N2-(4-(1-(2,2,2-trifluoroethyl)piperidin-4-yl)phenyl)spiro[3.3]heptane-2,6-diamine]	0.1 to 100	–
NC1CCC(Nc2ccc3cc(N4CCC(C(F)(F)F)CC4)ccc3c2)CC1 (stereo not drawn) [Compound 561, N1-(6-(4-(trifluoromethyl)piperidin-1-yl)naphthalen-2-yl)cyclohexane-1,4-diamine]	–	0.1 to 100
NC1CCC(Nc2ccc3nc(N4CCC(C(F)(F)F)CC4)ccc3c2)CC1 (stereo not drawn) [Compound 562, N-(2-(4-(trifluoromethyl)piperidin-1-yl)quinolin-6-yl)cyclohexane-1,4-diamine]	0.1 to 100	–
NC(=O)C1CCC(Nc2ccc3cc(N4CCC(C(F)(F)F)CC4)ccc3c2)CC1 (stereo not drawn) [Compound 563, 4-((6-(4-(trifluoromethyl)piperidin-1-yl)naphthalen-2-yl)amino)cyclohexane-1-carboxamide]	0.1 to 100	–
CC1CN(c2ccc3cc(NC4CC5(CC(N)C5)C4)ccc3c2)CC(C)O1 (stereo not drawn) [Compound 564, N^2-(6-(2,6-dimethylmorpholino)naphthalen-2-yl)spiro[3.3]heptane-2,6-diamine]	0.1 to 100	–
C[C@@H]1CN(c2ccc3cc(NC4CC5(CC(N)C5)C4)ccc3n2)C[C@H](C)O1 (stereo partly drawn) [Compound 565, N2-(2-((2S,6R)-2,6-dimethylmorpholino)quinolin-6-yl)spiro[3.3]heptane-2,6-diamine]	0.1 to 100	–
CC1CN(c2ccc3cc(NC4CC5(CC(N)C5)C4)ccc3n2)CC(C)N1C(=O)C(F)(F)F (stereo not drawn) [Compound 566]	0.1 to 100	–
CC1CN(c2ccc3cc(NC4CC5(CC(N)C5)C4)ccc3n2)CC(C)N1CC(F)(F)F (stereo not drawn) [Compound 567, N2-(2-(3,5-dimethyl-4-(2,2,2-trifluoroethyl)piperazin-1-yl)quinolin-6-yl)spiro-[3.3]heptane-2,6-diamine]	0.1 to 100	–
Cc1nc(N2CC(C)SC(C)C2)ccc1NC1CC2(CC(N)C2)C1 (stereo not drawn) [Compound 568, N2-(6-(2,6-dimethylthiomorpholino)-2-methylpyridin-3-yl)spiro[3.3]heptane-2,6-diamine]	0.1 to 100	–
Cc1nc(N2CCSCC2)ccc1NC1CC2(CC(N)C2)C1 (stereo not drawn) [Compound 569, N^2-(2-methyl-6-thiomorpholinopyridin-3-yl) spiro[3.3]heptane-2,6-diamine]	0.1 to 100	–
CC1CN(c2ccc3cc(NC4CC5(CC(N)C5)C4)ncc3c2)CC(C)O1 (stereo not drawn) [Compound 570, N2-(7-(2,6-dimethylmorpholino)isoquinolin-3-yl)spiro[3.3]heptane-2,6-diamine]	0.1 to 100	–
CC1CN(c2ncc3cc(NC4CC5(CC(N)C5)C4)ccc3n2)CC(C)O1 (stereo not drawn) [Compound 571, N^2-(2-(2,6-dimethylmorpholino)quinazolin-6-yl)spiro[3.3]heptane-2,6-diamine]	0.1 to 100	–
NC1CCC(Nc2ccc3cc(N4CCC(C(F)(F)F)CC4)cnc3c2)CC1 (stereo not drawn) [Compound 572, N1-(3-(4-(trifluoromethyl)piperidin-1-yl)quinolin-7-yl)cyclohexane-1,4-diamine]	0.1 to 100	–
